Data taken from patent publication US12599608B2, “Methods for treating cardiac valve disease” (The Regents of the University of California, priority 2018, dated 2026).

Tests used:
[1] = system: N1^+/−/mTR^G2 mice; assay: In vivo small molecule treatment, staining of AV calcification with Alizarin Red; conditions: for reduction of the extent of calcification / reduction of the number of mice that developed calcification: compared to DMSO-treated mice, Alizarin red; for reduction of the extent of calcification: TG003 n=2, p=0.09, XCT790 single calcified mouse, not statistically significant; for reduction of the number of mice that developed calcification: TG003 p=0.09, XCT790 not statistically significant; for number of mice with calcified AVs by Alizarin red staining: four weeks of treatment from fourth postnatal week, DMSO 14 of 86; for AV calcification, overall conclusion: summary statement
Experimental: (§1) Protocols were reviewed/approved by UCSF Institutional Animal Care and Use Committee, San Francisco, CA. N1^+/− and mTR^het C57Bl6 mice (purchased from Jackson Labs: #002797 and #004132, respectively) were used to generate double mutant animals. Breedings were performed as previously described (Theodoris et al., The Journal of Clinical Investigation. 2017; 127:1683) to generate N1^+/−/[…] mice. Mice were treated with XCT790 (5 mg/kg/day), TG003 (0.3 mg/kg/day or 2 mg/kg/day, results pooled for analysis), Fmoc-leu (0.6 mg/kg/day), GSK837149A (4.5 mg/kg/day), biperiden (10 mg/kg/day), CB1954 (15 mg/kg/day), putrescine (0.26 mg/kg/day), naloxone (25 mg/kg/day), all by intraperitoneal injection, and RO4929097 (60 mg/kg/day) by oral gavage, or equivalent volume of solvent (DMSO or saline) for four weeks starting at the fourth postnatal week.
Hearts were fixed by perfusion fixation under anesthesia using isofluorane by ventricular KCl injection followed by PBS wash and fixation with 4% paraformaldehyde. Hearts were then incubated in 10% formalin overnight. The cardiac apex was cut parallel to the aortic root, and the heart tissue was then paraffin processed using standard protocols and embedded with the cut surface down. The resulting paraffin block was trimmed and angled to obtain a full three-leaflet view of the aortic root. The root was serially sectioned at […] intervals from the base of the aortic sinus and mounted on slides. The slides were then deparaffinized, and calcification was stained with 2% Alizarin Red (pH 4.1-4.3) as previously described (Theodoris et al., The Journal of Clinical Investigation. 2017; 127:1683).

[2] = system: N1^+/−/mTR^G2 mice; assay: In vivo small molecule treatment, AV and PV peak velocity by echocardiography; conditions: XCT790 5 mg/kg/day i.p., TG003 0.3 or 2 mg/kg/day i.p. pooled; for AV stenosis by echocardiography: AV peak velocity versus DMSO; for PV stenosis by echocardiography: PV peak velocity versus DMSO
Experimental: as §1
Echocardiography was performed under isofluorane anesthesia with standard measurement techniques using the Vevo 770 Imaging System (VisualSonics) equipped with an RMV-707B transducer with central frequency of 30 MHz. Peak blood flow velocity through AVs and PVs was obtained by pulsed wave Doppler in the modified parasternal long and short axis views. The average of three cardiac cycles was used for each measurement.

Row | Structure (SMILES) | reduction of the extent of calcification [1] [%] | reduction of the number of mice that developed calcification [1] [%] | number of mice with calcified AVs by Alizarin red staining [1] | AV calcification, overall conclusion [1] | AV stenosis by echocardiography [2] | PV stenosis by echocardiography [2]
1 | CCN1/C(=C/C(C)=O)Sc2ccc(OC)cc21 [TG003, (Z)-1-(3-ethyl-5-methoxy-2,3-dihydrobenzothiazol-2-ylidene)propan-2-one] | 80 | 68 | 2 of 38 | showed a trend of reducing AV calcification | did not significantly impact | did not significantly impact
2 | COc1cc(/C=C(\C#N)C(=O)Nc2nnc(C(F)(F)F)s2)ccc1OCc1ccc(C(F)(F)F)cc1C(F)(F)F [XCT790, 2E-3-(4-{[2,4-bis(trifluoromethyl)benzyl]oxy}-3-methoxyphenyl)-2-cyano-N-[5-(trifluoromethyl)-1,3,4-thiadiazol-2-yl]acrylamide] | 99 | 64 | 1 of 17 | showed a trend of reducing AV calcification | showed a trend of reducing AV stenosis | sufficient to prevent PV stenosis
